For one data set, the system named is L929 cells. In words: TNF-induced necroptosis, cell viability by ATP levels. The settings on record: Mus musculus, L929, 24 h, read-out: EC50(nM) L929. It is filed as cell-based. How it is done:
(§1) Necroptosis is tightly regulated by RIP kinases including RIPK1 and RIPK3. To develop new necroptosis inhibitors, we screened a small-molecule library of around 240 potential kinase inhibitors that were designed with novel structures to affect the ATP-binding pocket of protein kinases. Human colon cancer HT-29 cells were treated with these compounds for […], followed by treatment with necroptotic stimuli (TNFα, Smac mimetic, and z-VAD) that are known to activate TNF-mediated necroptosis. After 48 h, cell viability was analyzed by monitoring ATP levels.
(§2) Fig. 1 PK6 efficiently blocks TNF-α induced necroptosis in both human and mouse cells. a HT-29 cells cultured in 96-well plates were pretreated with the indicated compounds (10 μM) from a library consisting of ~240 compounds that we designed with novel structures for 1 h and subsequently treated with 40 ng/ml TNF-α (T), 100 nM Smac mimetic (S), and the caspase inhibitor 20 μM z-VAD(Z) for 48 h. Cell viability was assessed by measuring ATP levels. Data are represented as the mean ± standard deviation of duplicates. b Chemical structure of PK6. c Dose response curve and EC50 ± SD value for PK6 in TNF-α induced necroptosis in HT-29 cells. Cells were pretreated with indicated concentrations of PK6 for 1 h prior to the treatment with T (40 ng/ml), S (100 nM), and Z (20 μM) for 48 h. Cell viability was assessed by measuring ATP levels. d U937 cells were pretreated with indicated concentrations of PK6 for 1 h followed by the treatment with T (40 ng/ml), S (100 nM), and Z (20 μM) for 24 h. e MEF cells were pretreated with indicated concentrations of PK6 for 1 h followed by the treatment with T (40 ng/ml), S (100 nM), and Z (20 μM) for 24 h. f L929 cells were pretreated with indicated concentrations of PK6 for 1 h prior to the treatment with S (100 nM) and Z (20 μM) for 24 h.
(§3) Fig. 2 Chemical optimization of PK6 leads to improvements in anti-necroptotic activity. a, b The effects of the indicated compounds on cell viability were examined in HT-29 cells (a) and L929 cells (b). HT-29 cells were treated as indicate for 48 h and L929 cells for 24 h. Cell viability was assessed by measuring ATP levels. Data are represented as the mean ± standard deviation of triplicates. c Structure and EC50 ± SD value of each compound are shown in the table. EC50 values are the average of at least two independent determinations. d Lead optimization of PK6 TEXT PRINTED IN THE PICTURE: (c) PK6: EC50(nM) HT-29: 1200±53; EC50(nM) L929: 760±26 | (c) PK67: EC50(nM) HT-29: 250±6.3; EC50(nM) L929: 130±6.8 | (c) PK81: EC50(nM) HT-29: 120±7.6; EC50(nM) L929: 20±0.98 | (c) PK84: EC50(nM) HT-29: 97±6.7; EC50(nM) L929: 45±2.1 | (c) PK93: EC50(nM) HT-29: 130±36; EC50(nM) L929: 30±7.4 | (c) PK86: EC50(nM) HT-29: 73±3.9; EC50(nM) L929: 15±1.0 | (c) PK68: EC50(nM) HT-29: 23±1.4; EC50(nM) L929: 13±0.85
(§4) The cell viability was analyzed by using the CellTiter-Glo Luminescent Cell Viability Assay kit following the manufacturer’s instructions (Promega). Luminescence was measured with SpectraMax i3x (Molecular Devices).

The subject of a further data set is HT-29 cells. The data set is described as follows: TNF-induced necroptosis (TNFα/Smac mimetic/z-VAD), cell viability by ATP levels. It counts as cell-based, human. The settings on record: Homo sapiens, HT-29, 48 h, T/S/Z 48 h, read-out: EC50(nM) HT-29. The procedure:
as §1, §2, §3, §4

Data set [1] concerns B16-F10 or RFP-LL/2 cells. In words: Proliferation rate and invasion ability without endothelial monolayer. It is filed as cell-based, mouse. Conditions: B16-F10 or RFP-LL/2, in vitro. The procedure:
Studies have shown that RIPK1 kinase activity is involved in the promotion of tumor metastasis through death receptor 6-dependent necroptosis of endothelial cells[22] or VEGF-dependent activation of vascular permeability. We thus evaluated the therapeutic effect of PK68 on lung metastasis of mouse melanoma B16-F10 cells in vivo. […] After 2 weeks, the metastasis of B16-F10 cells was measured by histological analysis and assessed as the number of metastasis nodules in the lung. […] Two weeks after intravenous injection of RFP-LL/2 cells, RFP^+ LL/2 cells were isolated from the tumor tissues by flow cytometer sorting and no signal of phosphorylated RIPK1 was detected in these tumors cells (Supplementary Fig. 22). Six hours after intravenous injection of RFP-LL/2 cells into C57BL/6 mice, the RFP-LL/2 cells have extravasated through blood vessels into the lung (Supplementary Fig. 23). […] Further, we evaluated the effect of PK68 on the tumor cell transmigration across the cultured endothelium. We isolated CD31^+ endothelial cells from the lungs and performed the transendothelial migration assay as previously reported. […]
(A-B) B16-F10 and RFP-LL/2 cells were pretreated with indicated compounds for 1h and then cell viability was measured by cell Titer-Glo. (C) B16-F10 and RFP-LL/2 cells were pre-treated with indicated compounds and invasion ability was measured by the transwell assay.

For a further data set, the system named is mouse and rat. More on the design: method as in PMID 27551444, PMID 28151659. Conditions: cited from earlier work.
Another data set concerns human cells. More on the design: method as in PMID 27551444, PMID 28151659. The settings on record: cited from earlier work.
For the next data set, the system named is HeLa-MLKL (1–190) cells. In words: MLKL dimerization-induced cell death (AP20187). Conditions: AP20187 100 nM, 24 h. It is filed as cell-based, human. The procedure: (§5) Recombinant proteins were incubated with PK6 and PK68 as indicated. […] NIH3T3-RIPK3 cells were pretreated with indicated compounds for 1 h and subsequently treated with T (40 ng/ml)/S (100 nM)/Z (20 μM) or AP20187 (100 nM) for 24 h. Cell viability was determined by measuring ATP levels. e PK6 and PK68 have no effect on MLKL dimerization-induced cell death in HeLa-MLKL (1–190) cells that stably express MLKL (1–190aa) fused to DmrB. HeLa-MLKL (1–190) cells were pretreated with indicated compounds for 1 h and subsequently treated with AP20187 (100 nM) for 24 h. Cell viability was determined by measuring ATP levels.
(§6) Further, we evaluated the selectivity of PK68 against a panel of 369 kinases provided by Reaction Biology (at 1000 nM). […] In addition, we followed on some of the active “hits” from the kinome scan. PK68 was tested against TNIK and TRKA by a reputable CRO company. […] RIPK1 is known to mediate NF-κB activation independently of its kinase activity. […] It has been shown that homodimerization of RIPK3 or MLKL induced by the dimerizer leads to necroptosis bypassing the upstream signals[10],[37]. […] This dimerized RIPK3-induced necroptosis was blocked by RIPK3 inhibitor GSK873 but was not blocked by the RIPK1 inhibitor necrostatin-1. […] (Fig. 4e).
as §4

The subject of a further data set is NIH3T3-RIPK3 cells. The data set is described as follows: RIPK3 dimerization-induced necroptosis (AP20187). Conditions: AP20187 100 nM, 24 h. It is filed as cell-based, mouse. How it is done:
as §5, §6, §4

Data on 10 compounds can be found in publication PMC6591251, “Discovery of potent necroptosis inhibitors targeting RIPK1 kinase activity for the treatment of inflammatory disorder and cancer metastasis” (Cell Death & Disease, 2019).

What is called melting point is the temperature of the solid-liquid transition. The term EC50 denotes the concentration needed to bring the measured effect to its halfway point.

Molecules are shown by their SMILES.

Turning to `CC(=O)Nc1nc2ccc(-c3cnc(C)c(NC(=O)OC4CCCCC4)c3)nc2s1` [PK93, cyclohexyl (5-(2-acetamidothiazolo[5,4-b]pyridin-5-yl)-2-methylpyridin-3-yl)carbamate], the melting point was 230 to 231 °C (dec.). The EC50 in the data set with L929 cells was 30 ± 7.4 nM. Further, in the data set with HT-29 cells, the EC50 amounted to 130 ± 36 nM.
With `CN1C(=O)NC(Cc2c[nH]c3c(Cl)cccc23)C1=O` (stereo not drawn) [Nec-1s, 7-Cl-O-Nec-1, reference compound], in data set [1], the “proliferation rate and invasion ability” value is “no obvious influence”.
Consider `CN1C(=O)[C@@H](NC(=O)c2n[nH]c(Cc3ccccc3)n2)COc2ccccc21` [GSK2982772], for which the “cellular efficacy in mouse and rat” value in the data set with mouse and rat was “highly reduced cellular efficacy”. The “potency in human cells” value in the data set with human cells is listed as “extremely potent”.
As for `COc1nccnc1NS(=O)(=O)c1ccc(NC(=O)/C=C/c2ccc([N+](=O)[O-])s2)cc1` [necrosulfonamide, reference compound], the “polymerized MLKL-induced necroptosis” value with HeLa-MLKL (1–190) cells was “effectively suppressed”.
On to `CC(=O)Nc1nc2ccc(-c3cc(NC(=O)OC4CCCCC4)c(C)cn3)cc2s1` [PK86, cyclohexyl (2-(2-acetamidobenzo[d]thiazol-6-yl)-5-methylpyridin-4-yl)carbamate], for which the melting point lay in the range of 227 to 228 °C. In addition, the concentration for a half-maximal effect (EC50) with L929 cells came to 15 ± 1 nM. Besides, in the data set on HT-29 cells, the EC50 was found to be 73 ± 3.9 nM.
In the case of `CN1C(=O)C(Cc2c[nH]c3ccccc23)NC1=S` (stereo not drawn) [necrostatin-1, Necrostatin-1, reference compound], the RIPK3 dimerization-induced necroptosis entry in the data set with NIH3T3-RIPK3 cells was “not blocked”.
As for `CC(=O)Nc1cn2cc(-c3cnc(C)c(NC(=O)OC4CCCCC4)c3)ccc2n1` [PK84, cyclohexyl (5-(2-acetamidoimidazo[1,2-a]pyridin-6-yl)-2-methylpyridin-3-yl)carbamate], the melting point was 268 to 269 °C (dec.). In addition, the EC50 in the data set on L929 cells amounted to 45 ± 2.1 nM. Further, the EC50 with HT-29 cells was 97 ± 6.7 nM.
For `CC(C)(C)C(=O)N1N=CC[C@H]1c1ccccc1` [GSK963], in the data set on mouse and rat, the “cellular efficacy in mouse and rat” value is listed as “highly reduced cellular efficacy”. Further, the “potency in human cells” value in the data set on human cells was “extremely potent”.
For the compound `CC(=O)Nc1nc2ccc(-c3cnc(C)c(NC(=O)CC4CCCCC4)c3)cc2s1` [PK67, N-(5-(2-acetamidobenzo[d]thiazol-6-yl)-2-methylpyridin-3-yl)-2-cyclohexylacetamide], the EC50 with L929 cells was determined as 130 nM; in the data set on HT-29 cells, 250 nM.
`CC(=O)Nc1nc2ccc(-c3cnc(C)c(NC(=O)OC4CCCC4)c3)cc2s1` [PK81, cyclopentyl (5-(2-acetamidobenzo[d]thiazol-6-yl)-2-methylpyridin-3-yl)carbamate]: the melting point is 246 to 247 °C (dec.). The EC50 in the data set on L929 cells stood at 20 ± 0.98 nM. In the data set on HT-29 cells, the EC50 amounted to 120 ± 7.6 nM.
